This note sets out measurements from patent US9556165B2 (priority 2012, dated 2017).

Common to all, as to type: cell-based
One experiment has as its system E. cloacae 34654. The experiment in a line: MIC determination, broth microdilution (CLSI). Conditions: Enterobacter cloacae, 34654, strain 3. (In general: Broth dilution looks for growth in wells or tubes with falling amounts of substance.)
A further experiment relates to K. pneumoniae 60. Nature of the experiment: MIC determination, broth microdilution (CLSI). Conditions: Klebsiella pneumoniae, 60, strain 2.
In the next experiment the test system is E. coli J62-TEM-3. Nature of the experiment: MIC determination, broth microdilution (CLSI). Conditions: Escherichia coli, J62TEM3, read-out: MIC strain 18 (E. coli J62-TEM-3), strain 18; broth microdilution.
The next experiment deals with A. baumannii ATCC15308. Nature of the experiment: MIC determination, broth microdilution (CLSI). To be noted: Acinetobacter baumannii, ATCC15308, strain 9.
A further experiment has as its system P. aeruginosa PAO1. Nature of the experiment: MIC determination, broth microdilution (CLSI). Conditions: Pseudomonas aeruginosa, PAO1, strain 6.
In the next experiment the test system is S. maltophilia ICB7569. The experiment in a line: MIC determination, broth microdilution (CLSI). Conditions: Stenotrophomonas maltophilia, ICB7569, strain 10.
For another experiment, the system named is Bacteria. The experiment in a line: MIC determination in combination with β-lactamase inhibitors (constant 4 μg/mL).
For a further experiment, the system named is M. morganii 126/3048. The experiment in a line: MIC determination, broth microdilution (CLSI). To be noted: Morganella morganii, 126/3048, strain 5.
Experiment [1] concerns P. aeruginosa 2297 (AmpC wt). Nature of the experiment: MIC determination, broth microdilution (CLSI). Conditions: Pseudomonas aeruginosa, strain 7.
The test system of a further experiment is C. perfringens DSM756. Nature of the experiment: microbe, parasite or virus in culture. Conditions: Clostridium perfringens, DSM756, read-out: MIC strain 16 (C. perfringens DSM756), strain 16; broth microdilution.
Another experiment relates to C. freundii K21/3034. Nature of the experiment: MIC determination, broth microdilution (CLSI). Conditions: Citrobacter freundii, K21/3034, strain 4.
In a further experiment the test system is S. aureus 133. Nature of the experiment: MIC determination, broth microdilution (CLSI).
The next experiment concerns B. fragilis 6688. Nature of the experiment: MIC determination, broth microdilution (CLSI). Conditions: Bacteroides fragilis, 6688, strain 15; broth microdilution; read-out: MIC strain 15 (B. fragilis 6688).
The subject of another experiment is E. coli ATCC25922. Nature of the experiment: MIC determination, broth microdilution (CLSI). To be noted: Escherichia coli, ATCC25922, strain 1.
The next experiment has as its system S. pneumoniae 113. Nature of the experiment: MIC determination, broth microdilution (CLSI). Conditions: Streptococcus pneumoniae, 113, strain 13; broth microdilution; read-out: MIC strain 13 (S. pneumoniae 113).
The test system of the next experiment is E. coli J62. Nature of the experiment: MIC determination, broth microdilution (CLSI). Conditions: Escherichia coli, J62, strain 17; broth microdilution; read-out: MIC strain 17 (E. coli J62).
The next experiment has as its system H. influenzae ATCC 49247. Nature of the experiment: MIC determination, broth microdilution (CLSI). To be noted: Haemophilus influenzae, ATCC49247, strain 12; broth microdilution; read-out: MIC strain 12 (H. influenzae ATCC 49247).
The test system of experiment [2] is P. aeruginosa 2297-con (AmpC derepressed). The experiment in a line: MIC determination, broth microdilution (CLSI). Conditions: Pseudomonas aeruginosa, read-out: strain 8 MIC, strain 8.
[3] abbreviates: Staphylococcus aureus, 133, strain 11, read-out: strain 11 MIC.
Where [4] appears, read: Staphylococcus aureus, 133, strain 14, broth microdilution, read-out: MIC strain 14 (S. aureus 133).

Values after ≈ are worked out from the molar mass of the structure shown. Where two headings read alike, the source gives them in different places.

In the case of `CC1(C)[C@H](NC(=O)/C(=N\OCCOc2ccc(C(=N)NC(CN)CN)cc2)c2csc(N)n2)C(=O)N1OS(=O)(=O)O` [Example 84, (2Z)-2-(2-Amino-1,3-thiazol-4-yl)-2-[(2-{4-[N-(1,3-diaminopropan-2-yl)carbamimidoyl]phenoxy}ethoxy)imino]-N-[(3S)-2,2-dimethyl-4-oxo-1-(sulfooxy)azetidin-3-yl]ethanamide], the MIC in the experiment on E. cloacae 34654 is 0.125 µg/mL (≈ 0.204 µM); against K. pneumoniae 60, 0.125 µg/mL (≈ 0.204 µM); in the experiment on E. coli J62-TEM-3, 4 µg/mL (≈ 6.52 µM); with A. baumannii ATCC15308 it was 1 µg/mL (≈ 1.63 µM); in the experiment with P. aeruginosa PAO1, 1 µg/mL (≈ 1.63 µM); in the experiment on S. maltophilia ICB7569, 32 µg/mL (≈ 52.1 µM). The MIC against M. morganii 126/3048 is 0.25 µg/mL (≈ 0.407 µM); in experiment [1], 2 µg/mL (≈ 3.26 µM); with C. perfringens DSM756 it was 2 µg/mL (≈ 3.26 µM); with C. freundii K21/3034 it was at most 0.063 µg/mL; in the experiment on S. aureus 133 (setting [3]), at most 0.063 µg/mL; with S. aureus 133 (setting [4]), 2 µg/mL (≈ 3.26 µM). Also, the MIC is 4 µg/mL (≈ 6.52 µM) in the experiment with B. fragilis 6688; at most 0.063 µg/mL against E. coli ATCC25922; at most 0.063 µg/mL in the experiment with S. pneumoniae 113; 0.125 µg/mL (≈ 0.204 µM) with E. coli J62; at most 0.063 µg/mL in the experiment with H. influenzae ATCC 49247; 2 µg/mL (≈ 3.26 µM) in experiment [2]. In the experiment on Bacteria, the “MIC strain 19 (E. coli J62-TEM-3 + 4 μg/mL clavulanic acid)” value is listed as “≦0.063 mg/L”. In addition, in the experiment with Bacteria, the “MIC strain 20 (E. coli J62-TEM-3 + 4 μg/mL sulbactam)” value is 0.125 mg/L. Further, the “MIC strain 21 (E. coli J62-TEM-3 + 4 μg/mL tazobactam)” value in the experiment with Bacteria amounted to 0.125 mg/L.

For `CC1(C)[C@H](NC(=O)/C(=N\OCCOc2ccc(C(=N)NC3CNNC3)cc2)c2csc(N)n2)C(=O)N1OS(=O)(=O)O` [Example 92], the MIC with E. cloacae 34654 came to 1 µg/mL (≈ 1.63 µM); in the experiment with K. pneumoniae 60, 0.5 µg/mL (≈ 0.817 µM); with E. coli J62-TEM-3, 32 µg/mL (≈ 52.3 µM); in the experiment with A. baumannii ATCC15308, 4 µg/mL (≈ 6.54 µM); with P. aeruginosa PAO1 it was 8 µg/mL (≈ 13.1 µM); with S. maltophilia ICB7569, 32 µg/mL (≈ 52.3 µM). For the same compound, the MIC against M. morganii 126/3048 is 0.5 µg/mL (≈ 0.817 µM); in [1] it was 8 µg/mL (≈ 13.1 µM); with C. perfringens DSM756 it was 2 µg/mL (≈ 3.27 µM); against C. freundii K21/3034, 0.5 µg/mL (≈ 0.817 µM); with S. aureus 133 (setting [3]), at most 0.063 µg/mL; in the experiment on S. aureus 133 (setting [4]), 8 µg/mL (≈ 13.1 µM). Besides, the MIC with B. fragilis 6688 was 8 µg/mL (≈ 13.1 µM); in the experiment with E. coli ATCC25922, 0.5 µg/mL (≈ 0.817 µM); in the experiment on S. pneumoniae 113, at most 0.063 µg/mL; in the experiment on E. coli J62, 1 µg/mL (≈ 1.63 µM); in the experiment on H. influenzae ATCC 49247 it was 0.125 µg/mL (≈ 0.204 µM); in [2], 8 µg/mL (≈ 13.1 µM). Further, the “MIC strain 19 (E. coli J62-TEM-3 + 4 μg/mL clavulanic acid)” value with Bacteria is listed as 0.5 mg/L. Further, the “MIC strain 20 (E. coli J62-TEM-3 + 4 μg/mL sulbactam)” value in the experiment on Bacteria is 0.5 mg/L. Moreover, the “MIC strain 21 (E. coli J62-TEM-3 + 4 μg/mL tazobactam)” value in the experiment with Bacteria is on record as 0.5 mg/L.

Take `CC1(C)[C@H](NC(=O)/C(=N\O[C@@H](COc2ccc(C(=N)NC(CN)CN)cc2)C(=O)O)c2csc(N)n2)C(=O)N1OS(=O)(=O)O` [Example 102, (2S)-2-({[(1Z)-1-(2-Amino-1,3-thiazol-4-yl)-2-{[(3S)-2,2-dimethyl-4-oxo-1-(sulfooxy)azetidin-3-yl]amino}-2-oxoethylidene]amino}oxy)-3-{4-[N-(1,3-diaminopropan-2-yl)carbamimidoyl]phenoxy}propanoic acid]: the MIC in the experiment on E. cloacae 34654 was 0.25 µg/mL (≈ 0.38 µM); with K. pneumoniae 60, at most 0.063 µg/mL; in the experiment with E. coli J62-TEM-3, 4 µg/mL (≈ 6.08 µM); against A. baumannii ATCC15308, 4 µg/mL (≈ 6.08 µM); against P. aeruginosa PAO1, 1 µg/mL (≈ 1.52 µM); in the experiment on S. maltophilia ICB7569, 4 µg/mL (≈ 6.08 µM). For the same compound, the MIC in the experiment with M. morganii 126/3048 was at most 0.063 µg/mL; in experiment [1], 2 µg/mL (≈ 3.04 µM); with C. perfringens DSM756, 2 µg/mL (≈ 3.04 µM); in the experiment with C. freundii K21/3034, at most 0.063 µg/mL; in the experiment with S. aureus 133 (setting [3]), at most 0.063 µg/mL; with B. fragilis 6688, 8 µg/mL (≈ 12.2 µM). The MIC is 0.125 µg/mL (≈ 0.19 µM) with E. coli ATCC25922; 0.5 µg/mL (≈ 0.76 µM) in the experiment on S. pneumoniae 113; 0.125 µg/mL (≈ 0.19 µM) in the experiment on E. coli J62; at most 0.063 µg/mL in the experiment with H. influenzae ATCC 49247; 2 µg/mL (≈ 3.04 µM) in experiment [2]. Further, the “MIC strain 19 (E. coli J62-TEM-3 + 4 μg/mL clavulanic acid)” value in the experiment on Bacteria was “≦0.063 mg/L”. The “MIC strain 20 (E. coli J62-TEM-3 + 4 μg/mL sulbactam)” value with Bacteria is listed as “≦0.063 mg/L”. In addition, in the experiment on Bacteria, the “MIC strain 21 (E. coli J62-TEM-3 + 4 μg/mL tazobactam)” value amounted to 0.125 mg/L.
